{"source": "PubChem BioAssay AID1259407", "about": "(Chemical Carcinogenesis Research Information System (CCRIS), 2018)", "tested_on": "CCRIS mutagenicity, Ames/micronucleus/aberration tests", "assay": "CCRIS mutagenicity studies", "key": {"[1]": {"conditions": "Test System: AMES SALMONELLA TYPHIMURIUM, Strain/Indicator: TA98, Metabolic Activation: NONE, Method: PREINCUBATION"}, "[2]": {"conditions": "Test System: AMES SALMONELLA TYPHIMURIUM, Strain/Indicator: TA100, Metabolic Activation: NONE, Method: PREINCUBATION"}, "[3]": {"conditions": "Test System: AMES SALMONELLA TYPHIMURIUM, Strain/Indicator: TA100, Metabolic Activation: NONE, Method: STANDARD PLATE"}, "[4]": {"conditions": "Test System: AMES SALMONELLA TYPHIMURIUM, Strain/Indicator: TA98, Metabolic Activation: RAT, LIVER, S-9, AROCLOR 1254, Method: STANDARD PLATE"}, "[5]": {"conditions": "Test System: AMES SALMONELLA TYPHIMURIUM, Strain/Indicator: TA98, Metabolic Activation: NONE, Method: STANDARD PLATE"}, "[6]": {"conditions": "Test System: AMES SALMONELLA TYPHIMURIUM, Strain/Indicator: TA100, Metabolic Activation: RAT, LIVER, S-9, AROCLOR 1254, Method: STANDARD PLATE"}}, "note": "Calls of active or inactive are those of the source. No rule for the calls is given here."}
{"smiles": "CCN(CC)CC", "values": [{"measurement": "mutagenic call", "setting": "Test System: AMES SALMONELLA TYPHIMURIUM, Strain/Indicator: TA98, Metabolic Activation: HAMSTER, LIVER, S-9, AROCLOR 1254 (10%), Method: PREINCUBATION", "value": "inactive; negative"}, {"measurement": "mutagenic call", "setting": "[1]", "value": "inactive; negative"}, {"measurement": "mutagenic call", "setting": "Test System: AMES SALMONELLA TYPHIMURIUM, Strain/Indicator: TA98, Metabolic Activation: RAT, LIVER, S-9, AROCLOR 1254 (10%), Method: PREINCUBATION", "value": "inactive; negative"}, {"measurement": "mutagenic call", "setting": "Test System: AMES SALMONELLA TYPHIMURIUM, Strain/Indicator: TA100, Metabolic Activation: HAMSTER, LIVER, S-9, AROCLOR 1254 (10%), Method: PREINCUBATION", "value": "inactive; negative"}, {"measurement": "mutagenic call", "setting": "[2]", "value": "inactive; negative"}, {"measurement": "mutagenic call", "setting": "Test System: AMES SALMONELLA TYPHIMURIUM, Strain/Indicator: TA100, Metabolic Activation: RAT, LIVER, S-9, AROCLOR 1254 (10%), Method: PREINCUBATION", "value": "inactive; negative"}, {"measurement": "mutagenic call", "setting": "Test System: AMES SALMONELLA TYPHIMURIUM, Strain/Indicator: TA1535, Metabolic Activation: HAMSTER, LIVER, S-9, AROCLOR 1254 (10%), Method: PREINCUBATION", "value": "inactive; negative"}, {"measurement": "mutagenic call", "setting": "Test System: AMES SALMONELLA TYPHIMURIUM, Strain/Indicator: TA1535, Metabolic Activation: NONE, Method: PREINCUBATION", "value": "inactive; negative"}, {"measurement": "mutagenic call", "setting": "Test System: AMES SALMONELLA TYPHIMURIUM, Strain/Indicator: TA1535, Metabolic Activation: RAT, LIVER, S-9, AROCLOR 1254 (10%), Method: PREINCUBATION", "value": "inactive; negative"}, {"measurement": "mutagenic call", "setting": "Test System: AMES SALMONELLA TYPHIMURIUM, Strain/Indicator: TA1537, Metabolic Activation: HAMSTER, LIVER, S-9, AROCLOR 1254 (10%), Method: PREINCUBATION", "value": "inactive; negative"}, {"measurement": "mutagenic call", "setting": "Test System: AMES SALMONELLA TYPHIMURIUM, Strain/Indicator: TA1537, Metabolic Activation: NONE, Method: PREINCUBATION", "value": "inactive; negative"}, {"measurement": "mutagenic call", "setting": "Test System: AMES SALMONELLA TYPHIMURIUM, Strain/Indicator: TA1537, Metabolic Activation: RAT, LIVER, S-9, AROCLOR 1254 (10%), Method: PREINCUBATION", "value": "inactive; negative"}]}
{"smiles": "O[C@H]1C=Cc2c(ccc3c(Cl)c4ccccc4cc23)[C@@H]1O", "values": [{"measurement": "mutagenic call", "setting": "Test System: AMES SALMONELLA TYPHIMURIUM, Strain/Indicator: TA100, Metabolic Activation: RAT, LIVER, S-9, PCB, Method: STANDARD PLATE", "value": "active; positive"}]}
{"smiles": "N#C[Se]Cc1ccccc1", "values": [{"measurement": "mutagenic call", "setting": "Test System: AMES SALMONELLA TYPHIMURIUM, Strain/Indicator: TA97A, Metabolic Activation: NONE, Method: STANDARD PLATE", "value": "inactive; negative"}, {"measurement": "mutagenic call", "setting": "[3]", "value": "active; positive"}]}
{"smiles": "O=[N+]([O-])c1cc(O)c2ccc3cccc4ccc1c2c34", "values": [{"measurement": "mutagenic call", "setting": "Test System: AMES SALMONELLA TYPHIMURIUM, Strain/Indicator: TA98(1,8-DNP6), Metabolic Activation: NONE, Method: PREINCUBATION", "value": "active; positive"}, {"measurement": "mutagenic call", "setting": "Test System: AMES SALMONELLA TYPHIMURIUM, Strain/Indicator: TA98(1,8-DNP6), Metabolic Activation: NONE, Method: STANDARD PLATE", "value": "active; positive"}, {"measurement": "mutagenic call", "setting": "Test System: AMES SALMONELLA TYPHIMURIUM, Strain/Indicator: TA98(1,8-DNP6), Metabolic Activation: RAT, LIVER, S-9, AROCLOR 1254, Method: STANDARD PLATE", "value": "active; positive"}, {"measurement": "mutagenic call", "setting": "Test System: AMES SALMONELLA TYPHIMURIUM, Strain/Indicator: TA98(NR), Metabolic Activation: NONE, Method: PREINCUBATION", "value": "active; positive"}, {"measurement": "mutagenic call", "setting": "Test System: AMES SALMONELLA TYPHIMURIUM, Strain/Indicator: TA98(NR), Metabolic Activation: NONE, Method: STANDARD PLATE", "value": "active; positive"}, {"measurement": "mutagenic call", "setting": "Test System: AMES SALMONELLA TYPHIMURIUM, Strain/Indicator: TA98(NR), Metabolic Activation: RAT, LIVER, S-9, AROCLOR 1254, Method: STANDARD PLATE", "value": "active; positive"}, {"measurement": "mutagenic call", "setting": "[1]", "value": "active; positive"}, {"measurement": "mutagenic call", "setting": "Test System: AMES SALMONELLA TYPHIMURIUM, Strain/Indicator: TA98, Metabolic Activation: RAT, LIVER, S-9, AROCLOR 1254, Method: PREINCUBATION", "value": "active; positive"}, {"measurement": "mutagenic call", "setting": "[4]", "value": "active; positive"}, {"measurement": "mutagenic call", "setting": "[2]", "value": "active; positive"}, {"measurement": "mutagenic call", "setting": "Test System: AMES SALMONELLA TYPHIMURIUM, Strain/Indicator: TA100, Metabolic Activation: RAT, LIVER, S-9, AROCLOR 1254, Method: PREINCUBATION", "value": "active; positive"}, {"measurement": "mutagenic call", "setting": "Test System: AMES SALMONELLA TYPHIMURIUM, Strain/Indicator: YG1024, Metabolic Activation: NONE, Method: STANDARD PLATE", "value": "active; positive"}, {"measurement": "mutagenic call", "setting": "Test System: AMES SALMONELLA TYPHIMURIUM, Strain/Indicator: YG1024, Metabolic Activation: RAT, LIVER, S-9, AROCLOR 1254, Method: STANDARD PLATE", "value": "active; positive"}, {"measurement": "mutagenic call", "setting": "Test System: CHINESE HAMSTER OVARY, Strain/Indicator: CHO (HGPRT)/6-THIOGUANINE, Metabolic Activation: NONE, Method: STANDARD PLATE", "value": "inactive; negative"}, {"measurement": "mutagenic call", "setting": "Test System: CHINESE HAMSTER OVARY, Strain/Indicator: CHO (HGPRT)/6-THIOGUANINE, Metabolic Activation: RAT, LIVER, S-9, AROCLOR 1254, Method: STANDARD PLATE", "value": "active; positive"}, {"measurement": "mutagenic call", "setting": "Test System: UDS RODENT HEPATOCYTES, Strain/Indicator: THY INCORP, Metabolic Activation: NONE, Method: AUTORADIOGRAPHY", "value": "inactive; negative"}]}
{"smiles": "O=S(=O)(O)CNc1ccc(N=Nc2cccnc2)cc1", "values": [{"measurement": "mutagenic call", "setting": "[5]", "value": "inactive; negative"}, {"measurement": "mutagenic call", "setting": "[4]", "value": "inactive; negative"}, {"measurement": "mutagenic call", "setting": "[3]", "value": "inactive; negative"}, {"measurement": "mutagenic call", "setting": "[6]", "value": "inactive; negative"}, {"measurement": "mutagenic call", "setting": "Test System: AMES SALMONELLA TYPHIMURIUM, Strain/Indicator: TA1535, Metabolic Activation: NONE, Method: STANDARD PLATE", "value": "inactive; negative"}, {"measurement": "mutagenic call", "setting": "Test System: AMES SALMONELLA TYPHIMURIUM, Strain/Indicator: TA1535, Metabolic Activation: RAT, LIVER, S-9, AROCLOR 1254, Method: STANDARD PLATE", "value": "inactive; negative"}, {"measurement": "mutagenic call", "setting": "Test System: AMES SALMONELLA TYPHIMURIUM, Strain/Indicator: TA1537, Metabolic Activation: NONE, Method: STANDARD PLATE", "value": "inactive; negative"}, {"measurement": "mutagenic call", "setting": "Test System: AMES SALMONELLA TYPHIMURIUM, Strain/Indicator: TA1537, Metabolic Activation: RAT, LIVER, S-9, AROCLOR 1254, Method: STANDARD PLATE", "value": "inactive; negative"}, {"measurement": "mutagenic call", "setting": "Test System: AMES SALMONELLA TYPHIMURIUM, Strain/Indicator: TA1538, Metabolic Activation: NONE, Method: STANDARD PLATE", "value": "inactive; negative"}, {"measurement": "mutagenic call", "setting": "Test System: AMES SALMONELLA TYPHIMURIUM, Strain/Indicator: TA1538, Metabolic Activation: RAT, LIVER, S-9, AROCLOR 1254, Method: STANDARD PLATE", "value": "inactive; negative"}]}
{"smiles": "BrCc1c2ccccc2c2ccc3cccc4ccc1c2c43", "values": [{"measurement": "mutagenic call", "setting": "[5]", "value": "active; positive"}, {"measurement": "mutagenic call", "setting": "[3]", "value": "active; positive"}]}
{"smiles": "CCCn1cc2c3c(cccc31)C1C[C@@H](C)CN(C#N)[C@@H]1C2", "note": "(some centres undefined)", "values": [{"measurement": "mutagenic call", "setting": "[6]", "value": "active; positive"}]}
